Like-named read-outs stand apart in the source and are kept apart here.
Key:
[1] = molecular target: T1, E. coli CsgA (Escherichia coli, UniProt P28307); assay: In vitro ThioflavinT assay of CsgA aggregation (CsgA ThT Assay); assay type: biochemical; details: for remaining activity at 25 µM / CsgA ThT Assay (10 μM CsgA) % Control AUC at 1005 minutes, 25 μM (activity range) / CsgA ThT Assay (10 μM CsgA) % Control AUC at 1005 minutes, 25 μM: compound 25 μM; for remaining activity at 100 µM / CsgA ThT Assay (10 μM CsgA) % Control AUC at 1005 minutes, 100 μM (activity range) / CsgA ThT Assay (10 μM CsgA) % Control AUC at 1005 minutes, 100 μM: compound 100 μM; for CsgA ThT Assay (10 μM CsgA) % Control AUC at 1005 minutes, 25 μM / CsgA ThT Assay (10 μM CsgA) % Control AUC at 1005 minutes, 100 μM: mean AUC as % of DMSO control
T1 construct: made in house; host or cells: E. coli NEB 3016 slyD::kan, pET11d
Procedure, shortened: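 Purified C-terminal His-tagged CsgA, monomerised by desalting and 30-kDa filtration, at 2-20 μM with 20-40 μM ThT in 50 mM potassium phosphate pH 7.3, 1% DMSO, compounds 3.125-200 uM; room temperature, fluorescence (ex 438/em 495 nm) read every 15 min. Background-subtracted signal expressed as percent inhibition versus vehicle at 6-6.5 or 8-9 h, or as percent control AUC.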

[2] = test system: CsgA gene expression (csgBAC promoter-GFP reporter) in E. coli UTI89; assay: In vitro live cell fluorescent reporter assay of CsgA transcription (Reporter Assay); assay type: cell-based
Procedure, shortened: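 Compounds at 0.14–100 μM (1% DMSO final) incubated 20 h at 27 °C in YESCA broth with UTI89 carrying a single-copy GFP reporter under the csgBAC intergenic promoter region, inoculum OD600 0.003. Fluorescence normalized to vehicle wells gave IC50 and 50%-of-vehicle concentration; OD600 reduction >10% flagged growth impact.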

[3] = read-out: CsgA ThT Assay (10 μM CsgA) % Control AUC at 1005 minutes, 25 μM (activity range), CsgA 10 μM, black plates, 1005 minutes, class symbol
[4] = read-out: CsgA ThT Assay (10 μM CsgA) % Control AUC at 1005 minutes, 25 μM, mean AUC as % of DMSO control, CsgA 10 μM, black plates, 1005 minutes
[5] = read-out: CsgA ThT Assay (10 μM CsgA) % Control AUC at 1005 minutes, 100 μM (activity range), CsgA 10 μM, black plates, 1005 minutes, class symbol
[6] = read-out: CsgA ThT Assay (10 μM CsgA) % Control AUC at 1005 minutes, 100 μM, mean AUC as % of DMSO control, CsgA 10 μM, black plates, 1005 minutes
[7] = Escherichia coli, read-out: Reporter Assay Abs IC50 (activity range), median Abs IC50 in the CsgA reporter assay, class symbol
[8] = Escherichia coli, read-out: Reporter Assay Abs IC50 (μM), median Abs IC50 in the CsgA reporter assay, N/A = maximum expression reduction is <50% of control
[9] = read-out: CsgA ThT Assay (2 μM CsgA) % Control Bmax 25 μM, activity range, class symbol, CsgA 2 μM, white plates
[10] = read-out: CsgA ThT Assay (2 μM CsgA) % Control Bmax 25 μM, mean Bmax as percentage of DMSO control, CsgA 2 μM, white plates
[11] = read-out: CsgA ThT Assay (2 μM CsgA) % Control Bmax 100 μM, activity range, class symbol, CsgA 2 μM, white plates
[12] = read-out: CsgA ThT Assay (2 μM CsgA) % Control Bmax 100 μM, mean Bmax as percentage of DMSO control, CsgA 2 μM, white plates
[13] = Escherichia coli, read-out: Reporter Assay Abs IC50, activity range, class symbol
[14] = CsgA 10 μM, black plates, 1005 minutes, class symbol
[15] = CsgA 10 μM, black plates, 1005 minutes
[16] = read-out: Reporter Assay Abs IC50 (activity range), median Abs IC50 in the CsgA reporter assay, class symbol
[17] = read-out: Reporter Assay Abs IC50, median Abs IC50 in the CsgA reporter assay, N/A = maximum expression reduction is <50% of control

T1 sequence (P28307 23-151): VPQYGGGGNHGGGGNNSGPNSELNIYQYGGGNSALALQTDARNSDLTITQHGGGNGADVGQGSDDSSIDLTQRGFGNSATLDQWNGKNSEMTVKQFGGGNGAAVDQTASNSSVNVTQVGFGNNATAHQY

SMILES | remaining activity at 25 µM [1, 3] | remaining activity at 25 µM [1, 4] | remaining activity at 100 µM [1, 5] | remaining activity at 100 µM [1, 6] | IC50 [2, 7] | IC50 [2, 8] | remaining activity at 25 µM [1, 9] | remaining activity at 25 µM [1, 10] | remaining activity at 100 µM [1, 11] | remaining activity at 100 µM [1, 12] | IC50 [2, 13] | CsgA ThT Assay (10 μM CsgA) % Control AUC at 1005 minutes, 25 μM (activity range) [1, 14] | CsgA ThT Assay (10 μM CsgA) % Control AUC at 1005 minutes, 100 μM (activity range) [1, 14] | CsgA ThT Assay (10 μM CsgA) % Control AUC at 1005 minutes, 25 μM [1, 15] | CsgA ThT Assay (10 μM CsgA) % Control AUC at 1005 minutes, 100 μM [1, 15] | IC50 [2, 16] | IC50 [2, 17]
C/C=C\c1c(Cc2cccc3ccccc23)c(-c2cccc(C(F)(F)F)c2)c2n(c1=O)C(C(=O)O)CN(C)S2(=O)=O (stereo not drawn) [Compound 087, (Z)-2-methyl-8-(naphthalen-1-ylmethyl)-6-oxo-7-(prop-1-en-1-yl)-9-(3-(trifluoromethyl)phenyl)-3,4-dihydro-2H,6H-pyrido[1,2-e][1,2,5]thiadiazine-4-carboxylic acid 1,1-dioxide] | 11 to 31% | 30% | 11 to 31% | 15% | 4.6 to 10 µM | 6 µM | – | – | – | – | – | – | – | – | – | – | –
CCc1c(Cc2cccc3ccccc23)c(-c2cccc(C(F)(F)F)c2)c2n(c1=O)C(C(=O)O)CN(CCCCCO)S2(=O)=O (stereo not drawn) [Compound 114, 7-ethyl-2-(5-hydroxypentyl)-8-(naphthalen-1-ylmethyl)-6-oxo-9-(3-(trifluoromethyl)phenyl)-3,4-dihydro-2H,6H-pyrido[1,2-e][1,2,5]thiadiazine-4-carboxylic acid 1,1-dioxide] | 31 to 60% | 37% | 11 to 31% | 21% | 4.6 to 10 µM | 7 µM | – | – | – | – | – | – | – | – | – | – | –
O=C(O)[C@@H]1CN(Cc2ccccc2)c2c(-c3cccc(C(F)(F)F)c3)c(Cc3cccc4ccccc34)c(Br)c(=O)n21 (single isomer, unassigned) [Compound 189] | – | – | – | – | – | 1.4 µM | 31 to 60% | 58% | 31 to 60% | 49% | 1.3 to 4.5 µM | – | – | – | – | – | –
O=C(O)CC1CSc2c(-c3cccc(C(F)(F)F)c3)c(Cc3cccc4ccccc34)cc(=O)n21 (stereo not drawn) [Compound 129, 2-(7-(naphthalen-1-ylmethyl)-5-oxo-8-(3-(trifluoromethyl)phenyl)-2,3-dihydro-5H-thiazolo[3,2-a]pyridin-3-yl)acetic acid] | 11 to 31% | 28% | > 60% | 61% | 1.3 to 4.5 µM | 3.4 µM | – | – | – | – | – | – | – | – | – | – | –
CCCCCN1CC(C(=O)O)n2c(c(-c3cccc(C(F)(F)F)c3)c(Cc3cccc4ccccc34)cc2=O)S1(=O)=O (single isomer, unassigned) [Compound 025b, 8-(naphthalen-1-ylmethyl)-6-oxo-2-pentyl-9-(3-(trifluoromethyl)phenyl)-3,4-dihydro-2H,6H-pyrido[1,2-e][1,2,5]thiadiazine-4-carboxylic acid 1,1-dioxide] | – | – | – | – | – | – | – | – | – | – | – | (++) (% control AUC of 31 to 60%) | (+) (% control AUC of greater than 60%) | 46% | 107% | 1.3 to 4.5 µM | 2.4 µM
CCCN1CC(C(=O)O)n2c(c(-c3cccc(C(F)(F)F)c3)c(Cc3cccc4ccccc34)c(C(C)C)c2=O)S1(=O)=O (stereo not drawn) [Compound 125, 7-isopropyl-8-(naphthalen-1-ylmethyl)-6-oxo-2-propyl-9-(3-(trifluoromethyl)phenyl)-3,4-dihydro-2H,6H-pyrido[1,2-e][1,2,5]thiadiazine-4-carboxylic acid 1,1-dioxide] | 11 to 31% | 25% | 31 to 60% | 44% | 1.3 to 4.5 µM | 2.7 µM | – | – | – | – | – | – | – | – | – | – | –
CN1CC(C(=O)O)n2c1c(-c1cccc(C(F)(F)F)c1)c(C(F)(F)c1cccc3ccccc13)cc2=O (stereo not drawn) [Compound 135, 7-(difluoro(naphthalen-1-yl)methyl)-1-methyl-5-oxo-8-(3-(trifluoromethyl)phenyl)-1,2,3,5-tetrahydroimidazo[1,2-a]pyridine-3-carboxylic acid] | – | – | – | – | – | 4 µM | > 60% | 88% | > 60% | 67% | 1.3 to 4.5 µM | – | – | – | – | – | –
O=C(O)C1CN(Cc2ccccc2)c2c(-c3cccc(C(F)(F)F)c3)c(Cc3ccnc4ccccc34)c(Cl)c(=O)n21 (stereo not drawn) [Compound 206, 1-benzyl-6-chloro-5-oxo-7-(quinolin-4-ylmethyl)-8-(3-(trifluoromethyl)phenyl)-1,2,3,5-tetrahydroimidazo[1,2-a]pyridine-3-carboxylic acid] | – | – | – | – | – | 13.2 µM | > 60% | 64% | 31 to 60% | 54% | > 10 µM | – | – | – | – | – | –
O=C(O)C1CNc2c(-c3cccc(C(F)(F)F)c3)c(Cc3cccc4ccccc34)cc(=O)n21 (stereo not drawn) [Compound 080, 7-(naphthalen-1-ylmethyl)-5-oxo-8-(3-(trifluoromethyl)phenyl)-1,2,3,5-tetrahydroimidazo[1,2-a]pyridine-3-carboxylic acid] | > 60% | 80% | > 60% | 72% | > 10 µM | 26.3 µM | – | – | – | – | – | – | – | – | – | – | –
CCCCN1CC(C(=O)O)n2c(c(-c3cccc(C(F)(F)F)c3)c(Cc3cccc4ccccc34)cc2=O)S1(=O)=O (single isomer, unassigned) [Compound 021b, 2-butyl-8-(naphthalen-1-ylmethyl)-6-oxo-9-(3-(trifluoromethyl)phenyl)-3,4-dihydro-2H,6H-pyrido[1,2-e][1,2,5]thiadiazine-4-carboxylic acid 1,1-dioxide] | – | – | – | – | – | – | – | – | – | – | – | (++) (% control AUC of 31 to 60%) | (+) (% control AUC of greater than 60%) | 36% | 99% | 1.3 to 4.5 µM | 2.1 µM
O=C(O)C1CNc2c(-c3cccc(C(F)(F)F)c3)c(Cc3cccc4ccccc34)c(Br)c(=O)n21 (stereo not drawn) [Compound 133, 6-bromo-7-(naphthalen-1-ylmethyl)-5-oxo-8-(3-(trifluoromethyl)phenyl)-1,2,3,5-tetrahydroimidazo[1,2-a]pyridine-3-carboxylic acid] | – | – | – | – | – | 3.7 µM | > 60% | 71% | 31 to 60% | 36% | 1.3 to 4.5 µM | – | – | – | – | – | –
O=C(O)C1CN(C2CCCCC2)S(=O)(=O)c2c(-c3cccc(C(F)(F)F)c3)c(Cc3cccc4ccccc34)c(NC3CCCC3)c(=O)n21 (stereo not drawn) [Compound 131, 2-cyclohexyl-7-(cyclopentylamino)-8-(naphthalen-1-ylmethyl)-6-oxo-9-(3-(trifluoromethyl)phenyl)-3,4-dihydro-2H,6H-pyrido[1,2-e][1,2,5]thiadiazine-4-carboxylic acid 1,1-dioxide] | – | – | – | – | – | 0.9 µM | 31 to 60% | 53% | > 60% | 94% | < 1.3 µM | – | – | – | – | – | –
CCCN1CC(C(=O)O)n2c(c(-c3cccc(C(F)(F)F)c3)c(Cc3cccc4ccccc34)c(CC(C)C)c2=O)S1(=O)=O (stereo not drawn) [Compound 139, 7-isobutyl-8-(naphthalen-1-ylmethyl)-6-oxo-2-propyl-9-(3-(trifluoromethyl)phenyl)-3,4-dihydro-2H,6H-pyrido[1,2-e][1,2,5]thiadiazine-4-carboxylic acid 1,1-dioxide] | – | – | – | – | – | 2.5 µM | 31 to 60% | 51% | 31 to 60% | 35% | 1.3 to 4.5 µM | – | – | – | – | – | –

Reference: patent US20230131899A1, “INHIBITORS OF MICROBIALLY INDUCED AMYLOID” (Axial Therapeutics, Inc., priority 2020, published 2023)
